Reference: the supplement of paper PMC6045584
± gives the standard deviation of the averaged measurements.

How the values were obtained:
AFIMOXIFENE = compound: CC/C(=C(\c1ccc(O)cc1)c1ccc(OCCN(C)C)cc1)c1ccccc1 [AFIMOXIFENE]; experiment: surviving fraction relative to DMSO-only wells; higher = less growth inhibition; conditions: exposure time: 5 days
Method in brief: (§1)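 Viability values are CellTiter-Glo luminescence readings, given as surviving fraction against the median of DMSO-only wells. The readings were taken after 10 minutes at room temperature, following five days of continuous exposure to inhibitors at 0.5, 1, 5, 10, 50, 100, 500 and 1000 nM that began 24 hours after log-phase tumour cell lines were seeded at 250–500 cells per well in 384-well plates. Every line was screened three times and kept only if replicate Pearson r >0.7 and median Z' >0.3.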

[1] = compound: C[C@@H]1CN(CC(=O)Nc2ccc3c(c2)Cc2cccc(-c4cc(=O)cc(N5CCOCC5)o4)c2S3)C[C@H](C)O1; experiment: as above; conditions: exposure time: 5 days
Method in brief: as §1

Test System | surviving fraction (AFIMOXIFENE; 0.5 nM) | surviving fraction (AFIMOXIFENE; 1 nM) | surviving fraction (AFIMOXIFENE; 5 nM) | surviving fraction (AFIMOXIFENE; 10 nM) | surviving fraction (AFIMOXIFENE; 50 nM) | surviving fraction (AFIMOXIFENE; 100 nM) | surviving fraction (AFIMOXIFENE; 500 nM) | surviving fraction (AFIMOXIFENE; 1000 nM) | surviving fraction ([1]; 0.5 nM) | surviving fraction ([1]; 1 nM) | surviving fraction ([1]; 5 nM) | surviving fraction ([1]; 10 nM) | surviving fraction ([1]; 50 nM) | surviving fraction ([1]; 100 nM) | surviving fraction ([1]; 500 nM) | surviving fraction ([1]; 1000 nM)
CASKI CERVIX | 0.882 ± 0.064 | 0.93 ± 0.023 | 0.989 ± 0.046 | 0.977 ± 0.03 | 1.1 ± 0.071 | 1.05 ± 0.017 | 1.01 ± 0.043 | 0.9003 ± 0.0032 | 0.925 ± 0.041 | 0.982 ± 0.035 | 0.963 ± 0.019 | 0.989 ± 0.07 | 0.91 ± 0.047 | 0.855 ± 0.057 | 0.759 ± 0.04 | 0.625 ± 0.037
SUM149.B1*.S BREAST | 1.17 ± 0.043 | 1.1 ± 0.022 | 1.14 ± 0.065 | 1.16 ± 0.087 | 1.18 ± 0.051 | 1.16 ± 0.099 | 1.14 ± 0.07 | 1.2 ± 0.034 | 1.07 ± 0.062 | 1.06 ± 0.064 | 1.05 ± 0.025 | 1.03 ± 0.027 | 1.07 ± 0.071 | 1.05 ± 0.016 | 1.08 ± 0.045 | 1.07 ± 0.074
143B BONE | – | 1.09 ± 0.041 | 1.15 ± 0.11 | 1.1 ± 0.036 | 1.12 ± 0.035 | 1.1 ± 0.033 | 1.14 ± 0.12 | 1.12 ± 0.15 | 1.03 ± 0.034 | 0.994 ± 0.016 | 1.02 | 1.02 ± 0.03 | 1.03 ± 0.035 | 1.01 ± 0.013 | 1 ± 0.011 | 0.9405 ± 0.0064
MDAMB436 BREAST | 0.962 ± 0.085 | 0.99 ± 0.11 | 0.965 ± 0.087 | 1.03 ± 0.21 | 1.03 ± 0.11 | 1.08 ± 0.13 | 1.01 ± 0.066 | 1 ± 0.063 | 0.892 ± 0.043 | 0.962 ± 0.095 | 0.922 ± 0.027 | 0.928 ± 0.058 | 0.858 ± 0.067 | 0.805 ± 0.068 | 0.761 ± 0.029 | 0.611 ± 0.066
SNU475 LIVER | 1.06 ± 0.024 | 1.09 ± 0.055 | 1.03 ± 0.016 | 1.04 ± 0.057 | 1.01 ± 0.022 | 1.07 ± 0.034 | 1.01 ± 0.054 | 1.07 ± 0.062 | 0.97 ± 0.022 | 1.02 ± 0.034 | 1.007 ± 0.0086 | 1.02 ± 0.027 | 0.876 ± 0.026 | 0.96133 ± 0.00058 | 0.863 ± 0.04 | 0.669 ± 0.036
HELA CERVIX | 1.05 ± 0.063 | 1.02 ± 0.11 | 1.08 ± 0.061 | 1 ± 0.055 | 1.1 ± 0.071 | 1.11 ± 0.065 | 1.17 ± 0.058 | 1.08 ± 0.12 | 1.1 ± 0.048 | 1.06 ± 0.049 | 1.115 ± 0.011 | 1.06 ± 0.039 | 1.13 ± 0.03 | 1.11 ± 0.021 | 1.21 ± 0.029 | 1.22 ± 0.072
93VU HEADNECK | 1.25 ± 0.11 | 1.2 ± 0.11 | 1.34 ± 0.074 | 1.32 ± 0.075 | 1.27 ± 0.053 | 1.2 ± 0.1 | 1.24 ± 0.12 | 1.08 ± 0.068 | 0.955 ± 0.062 | 1.09 ± 0.041 | 1.07 ± 0.069 | 1.05 ± 0.029 | 0.968 ± 0.024 | 0.943 ± 0.067 | 0.893 ± 0.045 | 0.836 ± 0.035
ZR751 BREAST | 1.13 ± 0.23 | 1.21 ± 0.18 | 1.09 ± 0.21 | 1.31 ± 0.19 | 1.09 ± 0.22 | 1.07 ± 0.17 | 1.03 ± 0.19 | 0.993 ± 0.084 | 1.01 ± 0.1 | 1.08 ± 0.19 | 1.02 ± 0.21 | 0.959 ± 0.13 | 0.951 ± 0.035 | 0.956 ± 0.076 | 1.06 ± 0.24 | 0.977 ± 0.071
S68 BREAST | 0.947 ± 0.19 | 0.829 ± 0.24 | 1.08 ± 0.052 | 0.952 ± 0.18 | 1.39 ± 0.13 | 1.21 ± 0.11 | 0.916 ± 0.047 | 0.805 ± 0.065 | 1.03 ± 0.2 | 1.16 ± 0.29 | 1.09 ± 0.28 | 1.24 ± 0.22 | 0.826 ± 0.13 | 0.79 ± 0.18 | 0.589 ± 0.086 | 0.516 ± 0.076
SCC003 HEADNECK | 1.127 ± 0.0056 | 1.14 ± 0.015 | 1.1 ± 0.091 | 1.07 ± 0.057 | 1.13 ± 0.055 | 1.1 ± 0.091 | 1.151 ± 0.0068 | 1.11 ± 0.042 | 1.06 ± 0.054 | 1.03 ± 0.013 | 1.12 ± 0.077 | 1.08 ± 0.045 | 0.984 ± 0.033 | 0.967 ± 0.096 | 1.04 ± 0.1 | 0.908 ± 0.091
RDES SOFT TISSUE | 1.25 ± 0.09 | 1.16 ± 0.052 | 1.16 ± 0.034 | 1.14 ± 0.095 | 1.14 ± 0.14 | 1.15 ± 0.062 | 1.59 ± 0.34 | 0.955 ± 0.11 | 1.18 ± 0.1 | 1.15 ± 0.11 | 0.972 ± 0.078 | 1.08 ± 0.24 | 0.759 ± 0.24 | 0.786 ± 0.23 | 0.799 ± 0.17 | 0.912 ± 0.24
VCAP PROSTATE | 0.993 ± 0.093 | 1.06 ± 0.1 | 1.07 ± 0.065 | 1.11 ± 0.098 | 1.12 ± 0.11 | 1.09 ± 0.019 | 1.07 ± 0.17 | 0.941 ± 0.075 | 1.01 ± 0.035 | 1.08 ± 0.066 | 1.11 ± 0.14 | 1.18 ± 0.15 | 1.19 ± 0.094 | 1.14 ± 0.11 | 0.922 ± 0.057 | 0.967 ± 0.079
SG43 HEADNECK | 0.934 ± 0.082 | 1.06 ± 0.26 | 1.14 ± 0.34 | 0.825 ± 0.14 | 0.903 ± 0.016 | 1 ± 0.14 | 1.16 ± 0.12 | 0.927 ± 0.13 | 0.871 ± 0.21 | 1.22 ± 0.069 | 1.03 ± 0.14 | 1.16 ± 0.14 | 1.37 ± 0.25 | 1.38 ± 0.36 | 1.31 ± 0.19 | 1.43 ± 0.061
CHLA90 AUTONOMIC GANGLIA | 0.969 ± 0.013 | 0.966 ± 0.061 | 0.985 ± 0.077 | 0.98 ± 0.039 | – | 1.16 ± 0.078 | 1.09 ± 0.088 | 1.05 ± 0.11 | 1.03 ± 0.052 | 1.07 ± 0.045 | 0.994 ± 0.07 | 1.08 ± 0.07 | 0.979 ± 0.0078 | 0.999 ± 0.068 | 1 ± 0.11 | 0.966 ± 0.041
NY BONE | 1.03 ± 0.041 | 1.026 ± 0.0089 | 1.1 ± 0.023 | 1.08 ± 0.027 | 1.11 ± 0.055 | 1.082 ± 0.006 | 0.972 ± 0.0056 | 0.9223 ± 0.0081 | 1.04 ± 0.014 | 1.06 ± 0.021 | 1.05 ± 0.024 | 1.07 ± 0.011 | 1.09 ± 0.043 | 1.12 ± 0.029 | 0.9613 ± 0.0029 | 0.915 ± 0.014
SCC36 HEADNECK | 1.07 ± 0.16 | 0.969 ± 0.026 | 1.13 ± 0.046 | 1.1 ± 0.047 | 1.07 ± 0.047 | 1.1 ± 0.078 | 0.883 ± 0.06 | 0.732 ± 0.074 | 0.993 ± 0.025 | 1.02 ± 0.058 | 1.09 ± 0.086 | 1.03 ± 0.026 | 0.859 ± 0.071 | 0.896 ± 0.031 | 0.801 ± 0.045 | 0.798 ± 0.031
SUM159 BREAST | 1.12 ± 0.024 | 1.12 ± 0.028 | 1.12 ± 0.026 | 1.11 ± 0.013 | 1.09 ± 0.025 | 1.13 ± 0.023 | 1.114 ± 0.01 | 1.06 ± 0.016 | 1.08 ± 0.012 | 1.15 ± 0.11 | 1.11 ± 0.048 | 1.13 ± 0.11 | 1.11 ± 0.079 | 1.1 ± 0.023 | 1.13 ± 0.11 | 1.05 ± 0.029
HCC1954 BREAST | 1.01 ± 0.15 | 1 ± 0.0018 | 1.31 ± 0.18 | 1.33 ± 0.1 | 0.9337 ± 0.0067 | 1.02 ± 0.056 | 0.973 ± 0.1 | 0.883 ± 0.12 | 0.9487 ± 0.0025 | 0.93 ± 0.092 | 0.875 ± 0.086 | 1.03 ± 0.11 | 0.742 ± 0.01 | 0.771 ± 0.051 | 0.604 ± 0.09 | 0.504 ± 0.12
OS25HAL BONE | 1.02 ± 0.036 | 1.04 ± 0.029 | 1.04 ± 0.014 | 1.02 ± 0.051 | 1.18 ± 0.044 | 1.09 ± 0.021 | 1.04 ± 0.084 | 1.04 ± 0.043 | 1.02 ± 0.026 | 1.02 ± 0.031 | 1.02 ± 0.022 | 1.02 ± 0.016 | 1.019 ± 0.0078 | 1.01 ± 0.019 | 1.05 ± 0.02 | 1.02 ± 0.018
HCT15 LARGE INTESTINE | 1.08 ± 0.077 | 1.05 ± 0.055 | 1.07 ± 0.085 | 1.06 ± 0.097 | 1.04 ± 0.054 | 1.07 ± 0.025 | 1.07 ± 0.054 | 1.09 ± 0.056 | 1.05 ± 0.017 | 1.04 ± 0.061 | 1.05 ± 0.05 | 1.05 ± 0.052 | 1 ± 0.066 | 1.01 ± 0.041 | 1.05 ± 0.052 | 1.08 ± 0.017
SCC47 HEADNECK | 1.26 ± 0.02 | 1.2 ± 0.038 | 1.31 ± 0.11 | 1.27 ± 0.13 | 1.31 ± 0.085 | 1.29 ± 0.12 | 1.24 ± 0.047 | 1.2 ± 0.055 | 1.06 ± 0.1 | 1.04 ± 0.036 | 1.1 ± 0.057 | 1.06 ± 0.075 | 1.04 ± 0.042 | 1.09 ± 0.04 | 1.05 ± 0.064 | 1.12 ± 0.093
